The numbers were not newly measured in US6086864A, “Pharmaceutical formulations comprising polythiourea and methods of use thereof” (Merrell Pharmaceuticals Inc., priority 1997, dated 2000), which cites them from elsewhere.

Series [1] concerns viral protein responsible for cell recognition. The following applies: purified form of heparin.
The conditions of series [2]: in vivo.

Consider heparin, for which the “inhibition of host cell infection” value in series [1] is “limited inhibition of host cell infection”. Besides, the side effects entry in series [2] is “hemorrhage and increased clot formation time as well as thrombocytopenia”.
